Data reported in patent US20090234150A1, “Use of ppar-alpha agonists to treat skeletal muscle wasting disorders” (priority 2006, published 2009).

Tested on: ischemic muscle necrosis
Settings: wild type mice, 0.5 g/kg/day by gavage for 10 days prior to femoral artery ligation
Description: To assess the muscle protective effect of the PPAR-alpha agonist fenofibrate, wild type mice received fenofibrate (0.5 g/kg/day; Cayman Chemical, Ann Arbor, Mich., USA) by gavage, or vehicle alone for 10 days prior to femoral artery ligation. Two days after femoral artery ligation muscle necrosis was subsequently analyzed on histological sections of the crural muscles.
Limb ischemia was induced by high unilateral right or bilateral ligation of the femoral artery and vein, and of the cutaneous vessels branching from the caudal femoral artery, sparing the femoral nerve. Crural muscles were dissected and processed for histological analysis 2 d or 7 d after ligation.
The crural muscles were dissected, fixed in 4% PFA, dehydrated, embedded in paraffin, and sectioned at 10 μm thickness. Microscopic analysis was performed with a Zeiss Axioplan 2 imaging microscope, equipped with an Axiocam HrC camera and KS300 morphometry software (Zeiss). Capillary density, fiber size, and the cross-sectional area of viable and necrotic zones were quantified on eight entire sections (each 320 μm apart) of the crural muscles.

Question: How did the “prevention of ischemic muscle necrosis” value (analysed two days after ligation, versus vehicle) turn out when `CC(C)OC(=O)C(C)(C)Oc1ccc(C(=O)c2ccc(Cl)cc2)cc1` [fenofibrate] was run?
Answer: 60%

Question: And the “% necrotic area/total cross-sectional area” value (crural muscles two days after ligation, n=4, P=0.002 (vehicle 86.3±8.2%))?
Answer: 34.3±7%
